target: T1, human EP4 receptors (Homo sapiens, UniProt P35408); experiment: cAMP assay in human EP4 transfectant; type: cell-based; conditions: HEK293 cells expressing human EP4 receptors, 1 nM PGE2, 0.2 mM IBMX, 37° C. for 10 min
T1 construct: expressed in transfected cells
Procedure: cAMP Assay in Human EP4 Transfectant
HEK293 cells expressing human EP4 receptors (hEP4 cells) are maintained in DMEM containing 10% FBS and 500 μg/ml geneticin. For harvesting hEP4 cells, culture medium is aspirated and cells in 75 cm^2 flask are washed with 10 ml of phosphate buffered saline (PBS). Another 10 ml of PBS is added to the cells and incubated for 20 min at room temperature. Human EP4 cells are harvested by pipetting and centrifuged at 300×g for 4 min. Cells are resuspended in DMEM without neutral red at a density of 7×10^5 cells/ml containing 0.2 mM IBMX (PDE inhibitor), 1 nM PGE2 and test compounds in PCR-tubes, and incubated at 37° C. for 10 min. The reaction is stopped by heating at 100° C. for 10 min with thermal cycler. Concentration of cAMP in reaction mixtures is determined with SPA cAMP Kit (Amersham) or cAMP Screen™ (Applied Biosystems) according to the manufacture's instruction. • Reference: Eur. J. Pharmacol. 340 (1997) 227-241. In Vivo Assays Carrageenan Induced Mechanical Hyperalgesia in Rats: […]

T1 sequence (P35408 whole entry): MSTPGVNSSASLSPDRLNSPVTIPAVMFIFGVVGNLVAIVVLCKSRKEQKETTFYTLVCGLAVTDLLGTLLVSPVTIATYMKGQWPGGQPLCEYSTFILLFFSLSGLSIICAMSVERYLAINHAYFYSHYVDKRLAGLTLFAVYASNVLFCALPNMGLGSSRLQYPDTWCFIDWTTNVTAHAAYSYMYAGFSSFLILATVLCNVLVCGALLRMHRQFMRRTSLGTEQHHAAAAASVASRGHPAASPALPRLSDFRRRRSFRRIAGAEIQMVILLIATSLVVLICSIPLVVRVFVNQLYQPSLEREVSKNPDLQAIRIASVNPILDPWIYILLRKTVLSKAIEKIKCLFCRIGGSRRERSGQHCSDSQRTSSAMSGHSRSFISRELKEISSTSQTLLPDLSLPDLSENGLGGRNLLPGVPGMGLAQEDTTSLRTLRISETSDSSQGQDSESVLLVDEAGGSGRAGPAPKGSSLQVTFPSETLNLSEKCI

| SMILES | IC50 |
| --- | --- |
| C[C@H](NC(=O)c1cc(Cl)ccc1COc1ccccc1Cl)c1ccc(C(=O)O)cc1 [EXAMPLE 1, 4-[(1S)-1-({5-chloro-2-[(2-chlorophenoxy)methyl]benzoyl}amino)ethyl]benzoic Acid] | 19 nM |
| C[C@H](NC(=O)c1cc(Cl)ccc1COc1cccc(Cl)c1)c1ccc(C(=O)O)cc1 [EXAMPLE 2, 4-[(1S)-1-({5-chloro-2-[(3-chlorophenoxy)methyl]benzoyl}amino)ethyl]benzoic Acid] | 11 nM |
| C[C@H](NC(=O)c1cc(Cl)ccc1COc1ccc(Cl)cc1)c1ccc(C(=O)O)cc1 [EXAMPLE 3, 4-[(1S)-1-({5-chloro-2-[(4-chlorophenoxy)methyl]benzoyl}amino)ethyl]benzoic Acid] | 7.5 nM |
| C[C@H](NC(=O)c1cc(Cl)ccc1COc1ccc(F)cc1)c1ccc(C(=O)O)cc1 [EXAMPLE 4, 4-[(1S)-1-({5-chloro-2-[(4-fluorophenoxy)methyl]benzoyl}amino)ethyl]benzoic Acid] | 15 nM |
| C[C@H](NC(=O)c1cc(Cl)ccc1COc1cccc(F)c1)c1ccc(C(=O)O)cc1 [EXAMPLE 5, 4-[(1S)-1-({5-chloro-2-[(3-fluorophenoxy)methyl]benzoyl}amino)ethyl]benzoic Acid] | 23 nM |
| C[C@H](NC(=O)c1cc(Cl)ccc1COc1ccccc1F)c1ccc(C(=O)O)cc1 [EXAMPLE 6, 4-[(1S)-1-({5-chloro-2-[(2-fluorophenoxy)methyl]benzoyl}amino)ethyl]benzoic Acid] | 30 nM |
| C[C@H](NC(=O)c1cc(Cl)ccc1COc1cccc(F)c1F)c1ccc(C(=O)O)cc1 [EXAMPLE 7, 4-[(1S)-1-({5-chloro-2-[(2,3-difluorophenoxy)methyl]benzoyl}amino)ethyl]benzoic Acid] | 15 nM |
| C[C@H](NC(=O)c1cc(Cl)ccc1COc1ccc(F)cc1F)c1ccc(C(=O)O)cc1 [EXAMPLE 8, 4-[(1S)-1-({5-chloro-2-[(2,4-difluorophenoxy)methyl]benzoyl}amino)ethyl]benzoic Acid] | 17 nM |
| C[C@H](NC(=O)c1cc(Cl)ccc1COc1cc(F)ccc1F)c1ccc(C(=O)O)cc1 [EXAMPLE 9, 4-[(1S)-1-({5-chloro-2-[(2,5-difluorophenoxy)methyl]benzoyl}amino)ethyl]benzoic Acid] | 41 nM |
| C[C@H](NC(=O)c1cc(Cl)ccc1COc1c(F)cccc1F)c1ccc(C(=O)O)cc1 [EXAMPLE 10, 4-[(1S)-1-({5-chloro-2-[(2,6-difluorophenoxy)methyl]benzoyl}amino)ethyl]benzoic Acid] | 24 nM |
| C[C@H](NC(=O)c1cc(Cl)ccc1COc1ccc(F)c(F)c1)c1ccc(C(=O)O)cc1 [EXAMPLE 11, 4-[(1S)-1-({5-chloro-2-[(3,4-difluorophenoxy)methyl]benzoyl}amino)ethyl]benzoic Acid] | 16 nM |
| C[C@H](NC(=O)c1cc(Cl)ccc1COc1cc(F)cc(F)c1)c1ccc(C(=O)O)cc1 [EXAMPLE 12, 4-[(1S)-1-({5-chloro-2-[(3,5-difluorophenoxy)methyl]benzoyl}amino)ethyl]benzoic Acid] | 22 nM |
| Cc1ccc(OCc2ccc(Cl)cc2C(=O)N[C@@H](C)c2ccc(C(=O)O)cc2)cc1 [EXAMPLE 13, 4-[(1S)-1-({5-chloro-2-[(4-methylphenoxy)methyl]benzoyl}amino)ethyl]benzoic Acid] | 8.3 nM |
| C[C@H](NC(=O)c1cc(Cl)ccc1COc1cncc(F)c1)c1ccc(C(=O)O)cc1 [EXAMPLE 14, 4-{(1S)-1-[(5-chloro-2-{[(5-fluoropyridin-3-yl)oxy]methyl}benzoyl)amino]ethyl}benzoic Acid] | 380 nM |
| C[C@H](NC(=O)c1cc(Cl)ccc1COc1cncc(Cl)c1)c1ccc(C(=O)O)cc1 [EXAMPLE 15, 4-{(1S)-1-[(5-chloro-2-{[(5-chloropyridin-3-yl)oxy]methyl}benzoyl)amino]ethyl}benzoic Acid] | 160 nM |
| C[C@H](NC(=O)c1cc(Cl)ccc1COC1CCCC1)c1ccc(C(=O)O)cc1 [EXAMPLE 16, 4-[(1S)-1-({5-chloro-2-[(cyclopentyloxy)methyl]benzoyl}amino)ethyl]benzoic Acid] | 470 nM |
| CC(C)COCc1ccc(Cl)cc1C(=O)N[C@@H](C)c1ccc(C(=O)O)cc1 [EXAMPLE 17, 4-((1S)-1-{[5-chloro-2-(isobutoxymethyl)benzoyl]amino}ethyl)benzoic Acid] | 180 nM |
| C[C@H](NC(=O)c1cc(Cl)cnc1COc1ccc(Cl)cc1)c1ccc(C(=O)O)cc1 [EXAMPLE 18, 4-{(1S)-1-[({5-chloro-2-[(4-chlorophenoxy)methyl]pyridin-3-yl}carbonyl)amino]ethyl}benzoic Acid] | 22 nM |
| CNC(=O)c1cccc(OCc2ccc(Cl)cc2C(=O)N[C@@H](C)c2ccc(C(=O)O)cc2)c1 [EXAMPLE 19, 4-((1S)-1-{[5-chloro-2-({3-[(methylamino)carbonyl]phenoxy}methyl)benzoyl]amino}ethyl)benzoic Acid] | 220 nM |
| C[C@H](NC(=O)c1cc(Cl)cnc1COc1cccc(Cl)c1)c1ccc(C(=O)O)cc1 [EXAMPLE 20, 4-{(1S)-1-[({5-chloro-2-[(3-chlorophenoxy)methyl]pyridin-3-yl}carbonyl)amino]ethyl}benzoic Acid] | 17 nM |
| C[C@H](NC(=O)c1cc(F)cnc1COc1ccc(Cl)cc1)c1ccc(C(=O)O)cc1 [EXAMPLE 21, 4-{(1S)-1-[({2-[(4-chlorophenoxy)methyl]-5-fluoropyridin-3-yl}carbonyl)amino]ethyl}benzoic Acid] | 48 nM |
| C[C@H](NC(=O)c1cc(Cl)ccc1CN(C)c1ccc(Cl)cn1)c1ccc(C(=O)O)cc1 [EXAMPLE 22, 4-{(1S)-1-[(5-chloro-2-{[(5-chloropyridin-2-yl)(methyl)amino]methyl}benzoyl)amino]ethyl}benzoic Acid] | 68 nM |
| C[C@H](NC(=O)c1cc(Cl)ccc1COCC1CCCCC1)c1ccc(C(=O)O)cc1 [EXAMPLE 23, 4-{(1S)-1-({5-chloro-2-[(cyclohexylmethoxy)methyl]benzoyl}amino)ethyl}benzoic Acid] | 10 nM |
| C[C@H](NC(=O)c1cc(Cl)ccc1COCC(C)(C)C)c1ccc(C(=O)O)cc1 [EXAMPLE 24, 4-{(1S)-1-({5-chloro-2-[(2,2-dimethylpropoxy)methyl]benzoyl}amino)ethyl}benzoic Acid] | 120 nM |
| C[C@H](NC(=O)c1cc(Cl)ccc1CN(C)c1ccc(F)cn1)c1ccc(C(=O)O)cc1 [EXAMPLE 25, 4-{(1S)-1-[(5-chloro-2-{[(5-fuluoropyridin-2-yl)(methyl)amino]methyl}benzoyl)amino]ethyl}benzoic Acid] | 230 nM |
| C[C@H](NC(=O)c1cc(Cl)cnc1COc1cccc(F)c1)c1ccc(C(=O)O)cc1 [EXAMPLE 26, 4-{(1S)-1-[({5-chloro-2-[(3-fluorophenoxy)methyl]pyridin-3-yl}carbonyl)amino]ethyl}benzoic Acid] | 56 nM |
| C[C@H](NC(=O)c1cc(Cl)cnc1COc1ccc(F)cc1)c1ccc(C(=O)O)cc1 [EXAMPLE 27, 4-{(1S)-1-[({5-chloro-2-[(4-fluorophenoxy)methyl]pyridin-3-yl}carbonyl)amino]ethyl}benzoic Acid] | 91 nM |

Source: patent US7534914B2, “Substituted methyl aryl or heteroaryl amide compounds” (ReQualia Pharma Inc., priority 2004, dated 2009)
